Where only a bound is given, the exact number is not on record here.

For this experiment, the target named is Metabotropic glutamate receptor 3 (Homo sapiens, UniProt Q14832). The experiment can be described thus: Positive allosteric modulation of human mGluR3 expressed in HEK293 cells assessed as increase in glutamate-induced calcium mobilization preincubated for 10 mins followed by glutamate addition and measured for 3 mins by Fluo4-AM dye based FLIPR assay. The experiment is classed as functional, cell-based.
Metabotropic glutamate receptor 3, sequence (Q14832 whole entry): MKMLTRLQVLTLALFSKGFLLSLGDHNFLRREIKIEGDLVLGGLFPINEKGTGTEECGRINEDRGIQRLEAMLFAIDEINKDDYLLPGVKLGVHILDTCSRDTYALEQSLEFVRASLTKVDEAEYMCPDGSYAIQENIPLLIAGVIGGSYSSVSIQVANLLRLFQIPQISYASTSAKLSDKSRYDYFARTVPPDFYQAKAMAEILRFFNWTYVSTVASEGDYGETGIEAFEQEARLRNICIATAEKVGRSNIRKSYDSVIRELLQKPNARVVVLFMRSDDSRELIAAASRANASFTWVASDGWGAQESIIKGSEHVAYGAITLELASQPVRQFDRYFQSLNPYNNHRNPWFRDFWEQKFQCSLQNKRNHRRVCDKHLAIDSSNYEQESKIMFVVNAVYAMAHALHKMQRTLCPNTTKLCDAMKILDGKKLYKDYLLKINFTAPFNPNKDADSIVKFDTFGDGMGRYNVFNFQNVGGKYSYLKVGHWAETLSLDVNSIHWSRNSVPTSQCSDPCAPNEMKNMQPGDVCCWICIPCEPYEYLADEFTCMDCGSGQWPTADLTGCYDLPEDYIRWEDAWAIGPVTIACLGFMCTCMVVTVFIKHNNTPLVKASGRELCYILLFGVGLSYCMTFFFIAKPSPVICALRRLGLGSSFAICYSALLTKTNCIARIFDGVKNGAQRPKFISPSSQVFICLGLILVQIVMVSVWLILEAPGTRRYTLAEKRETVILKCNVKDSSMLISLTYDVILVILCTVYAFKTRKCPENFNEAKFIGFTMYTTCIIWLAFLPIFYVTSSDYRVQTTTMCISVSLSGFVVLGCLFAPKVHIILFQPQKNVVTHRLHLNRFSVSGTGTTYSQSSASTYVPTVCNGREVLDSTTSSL
With `CN1C(=O)c2ncccc2-c2cc(-c3ccc(F)nc3)ccc2C12CC2`, the EC50 – broadly, the midpoint of the concentration-response curve – was below 0.1 µM.
`COc1ccc2c(n1)C(=O)N(C)Cc1ccc(-c3ccc(F)nc3)cc1-2`: the 50% effective concentration (EC50) was below 0.1 µM.
Consider `CN1C(=O)c2ncccc2-c2cc(-c3ccc(F)cn3)ccc2C12CC2`, for which the concentration for a half-maximal effect (EC50) was below 0.1 µM.
On to `COc1ccc2c(n1)C(=O)N(C)C1(CC1)c1ccc(-c3ccc(F)nc3)cc1-2`, for which the EC50 is below 0.1 µM.
As for `COCn1cc2c(n1)C(=O)N(C)C1(CC1)c1ccc(-c3ccc(F)nc3)cc1-2`, the figure is below 0.1 µM; as for `CN1C(=O)c2cccn2-c2cc(-c3ccc(F)nc3)ccc2C12CCC2`, below 0.1 µM.
Consider `COCn1cc2c(n1)C(=O)N(C)Cc1ccc(-c3ccc(F)cn3)cc1-2`, for which the EC50 lay in the range of 0.1 to 1 µM.
As for `CCn1cc2c(n1)C(=O)N(C)Cc1ccc(-c3cccnc3C)cc1-2`, the EC50 was in the range of 0.1 to 1 µM.

(Values after ChEMBL document CHEMBL4330174, “Allosteric mGluR3 Modulators for the Treatment of Psychiatric Disorders” (ACS Med Chem Lett, 2019).)
